Results reported in US5208032A, “Increasing the growth of turkeys using implant of 19-nortestosterone” (Rutgers, The State University of New Jersey, priority 1992, dated 1993).

Tests used:
testosterone antiserum = settings: manufacturer statement; cited from earlier work
[1] = Comparison of effect on growth in castrated male White Leghorn chickens (Study IV, Table II); assay type: in vivo
Procedure: (§1) The single comb White Leghorn strain (Dekalb XL) of chicken (Avian Services, Frenchtown, N.J.) was used in all studies. Chicks were obtained on the day following hatch and were then maintained in a well ventilated, temperature- and humidity-controlled animal room. Chicks were housed in temperature-controlled (access to small brood chambers--32° to 35° C.), wire-floored, 5-tier brooder batteries (measuring 0.74 W×1.55 L×0.27 H m per tier) until termination of respective studies. A 12 hour light:12 hour dark photoperiod was maintained at all times within the animal room. Feed and water were available ad libitum, with a standard commercial diet (Agway; Bordentown, N.J.), chick starter mash, fed to chicks 1 to 42 days of age, and then from 43 to 84 days, grower mash was provided (manufacturer statement on ration compositions are shown in Table 2).
(§2) Excluding Study II, chicks were either castrated (Quigley, 1967) or sham-operated at 13 days of age. Prior to castration, cockerels were deprived of feed and water for 24 hours in order that the intestines may become empty and thus permit better vision into the body cavity and accessibility to testes. Birds were restrained by fastening the wings and legs with leather straps so that sufficient tension was applied to hold the bird well stretched out in a lateral recumbency (on its left side). Next, an approximate 1 inch incision was made midway between the last two ribs and a small rib spreader inserted to hold the ribs about 1/2 inch apart.
(§3) Forceps were used to remove both testicles, with the lower or left testicle removed first. The forceps were carefully worked over the testicle and so manipulated as to enclose the entire organ. It was then drawn out with a slight twisting motion. At this step, care was taken not to rupture any of the primary blood vessels. When the rib spreader was removed, and the tension on the bird released (i.e., leg and wing straps removed), the skin and thigh muscles slipped back over the incision thus affording a natural protection. No special care was necessary for surgically manipulated birds other than to puncture "air pockets" which developed under the skin due to air escaping from within the abdominal cavity before the incision between the ribs was healed.
(§4) In all studies, chicks were rank-ordered by weight, wing-banded and distributed into treatment groups of equal body weights at 14 days of age. Excluding Study I, e.g., in which male, female and castrate male comparisons were made, all control groups were implanted with 1.0-cm length cholesterol-filled Silastic polysiloxane implants (i.e., steroid surface exposure of 1.0-cm; actual length was 2.0-cm with 1/2 cm wood dowel plugs placed at each end of implant). The remaining treatment groups consisted of chicks (male, female or castrated male) implanted with either testosterone-, 5-alpha-DHT-, 5-beta-DHT-, estradiol-17-beta-, or 19-nortestosterone-filled Silastic polysiloxane implants with steriod surface exposures of either 0.3, 1.0 or 3.0 cm in length. Steroid implants were prepared by manually packing respective crystalline steroids (Steraloids; Wilton, N.H.) into Silastic Medical Grade tubing (1.57 mm i.d.; Dow Corning) (Smith et al., 1977). The amounts of steroid contained in the implants were as follows (mean±SEM of 20 randomly chosen implants, 5 for each steroid): 2.6±0.2 mg (0.3-cm), 8.9±0.4 mg (1.0-cm), and 29.2±0.7 mg 3.0-cm). At the time of group assignment, implants were placed in the subcutaneous (S.C.) layer of skin behind the neck. Supplemental steroid implants (containing doses of steroids equivalent to those of the initial implants) were implanted at 6 and 10 weeks of age, without removal of prior implants, to ensure adequate androgen replacement with increasing growth. Cage floors and fecal collection trays were checked for 2 consecutive days following each implantation session to ensure completeness of procedure. […]

[2] = Comparison of effect of 19-nortestosterone and 5-alpha-DHT on growth in castrated male White Leghorn chickens (Study V, Table III); assay type: in vivo; settings: for Abdominal Adipose / Final Shank-toe Length / Right Breast Muscle: 6 weeks; for Abdominal Adipose Change / Final 6-week Body Wt. Change / Final Shank-toe Length Change / Right Breast Muscle Change: given unsigned (decrease vs cholesterol); for Final 6-week Body Wt.: minus comb + wattle weight
Procedure: as §1, §2, §3, §4

[3] = 0.1-cm implant (so in the source)
[4] = 0.3-cm implant, given unsigned (decrease vs cholesterol)
[5] = 3.0-cm implant, given unsigned (decrease vs cholesterol)
[6] = 1.0-cm implant, given unsigned (decrease vs cholesterol)

C[C@]12CC[C@H]3[C@@H](CCC4=CC(=O)CC[C@@]43C)[C@@H]1CC[C@@H]2O [Testosterone, testosterone]
cross-reaction with Immuchem testosterone antiserum (testosterone antiserum): 100%
6-week Body Wt. [1, 3]: 503 ± 10 g
12-week Body Wt. [1, 3]: 1287 ± 25 g
Adipose Abdominal [1, 3]: 15 ± 3 g
Final 12-week Shank-toe Length [1, 3]: 16.9 ± 0.14 cm
Right Breast Muscle [1, 3]: 61 ± 2 g
Adipose Abdominal Change ([1]; 0.1-cm implant (so in the source), given unsigned (decrease vs cholesterol)): 37.5%
6-week Body Wt. ([1]; 0.3-cm implant): 501 ± 13 g
12-week Body Wt. ([1]; 0.3-cm implant): 1262 ± 35 g
Adipose Abdominal ([1]; 0.3-cm implant): 16 ± 2 g
Final 12-week Shank-toe Length ([1]; 0.3-cm implant): 17.0 ± 0.16 cm
Right Breast Muscle ([1]; 0.3-cm implant): 61 ± 2 g
Adipose Abdominal Change [1, 4]: 33.3%
6-week Body Wt. ([1]; 3.0-cm implant): 505 ± 13 g
12-week Body Wt. ([1]; 3.0-cm implant): 1207 ± 25 g
Adipose Abdominal ([1]; 3.0-cm implant): 10 ± 3 g
Final 12-week Shank-toe Length ([1]; 3.0-cm implant): 16.4 ± 0.16 cm
Right Breast Muscle ([1]; 3.0-cm implant): 55 ± 2 g
12-week Body Wt. Change [1, 5]: 5.6%
Adipose Abdominal Change [1, 5]: 58.3%
Final 12-week Shank-toe Length Change [1, 5]: 3.5%
Right Breast Muscle Change [1, 5]: 14.1%

C[C@]12CC[C@H]3[C@@H](CCC4=CC(=O)CC[C@@H]43)[C@@H]1CC[C@@H]2O [19-Nortestosterone, 19-nortestosterone]
Abdominal Adipose ([2]; 0.3-cm implant): 1.26 ± 0.19 g
Final Shank-toe Length ([2]; 0.3-cm implant): 10.8 ± 0.13 cm
Right Breast Muscle ([2]; 0.3-cm implant): 13.9 ± 1.1 g
Abdominal Adipose Change ([2]; 0.3-cm implant): 58%
Final 6-week Body Wt. Change ([2]; 0.3-cm implant): 16.9%
Final Shank-toe Length Change ([2]; 0.3-cm implant): 9.2%
Right Breast Muscle Change ([2]; 0.3-cm implant): 29.8%
Final 6-week Body Wt. ([2]; 0.3-cm implant): 384 ± 18 g
Abdominal Adipose ([2]; 1.0-cm implant): 0.26 ± 0.08 g
Final Shank-toe Length ([2]; 1.0-cm implant): 10.2 ± 0.12 cm
Right Breast Muscle ([2]; 1.0-cm implant): 13.2 ± 0.87 g
Abdominal Adipose Change ([2]; 1.0-cm implant): 91%
Final 6-week Body Wt. Change ([2]; 1.0-cm implant): 24.0%
Final Shank-toe Length Change ([2]; 1.0-cm implant): 14.3%
Right Breast Muscle Change ([2]; 1.0-cm implant): 33.3%
Final 6-week Body Wt. ([2]; 1.0-cm implant): 351 ± 13 g
Abdominal Adipose ([2]; 3.0-cm implant): 0.58 ± 0.12 g
Final Shank-toe Length ([2]; 3.0-cm implant): 9.8 ± 0.17 cm
Right Breast Muscle ([2]; 3.0-cm implant): 12.0 ± 0.96 g
Abdominal Adipose Change ([2]; 3.0-cm implant): 81%
Final 6-week Body Wt. Change ([2]; 3.0-cm implant): 24.5%
Final Shank-toe Length Change ([2]; 3.0-cm implant): 17.6%
Right Breast Muscle Change ([2]; 3.0-cm implant): 39.4%
Final 6-week Body Wt. ([2]; 3.0-cm implant): 349 ± 19 g

C[C@]12CCC(=O)C[C@@H]1CC[C@@H]1[C@@H]2CC[C@]2(C)[C@@H](O)CC[C@@H]12 [5-alpha-DHT, 5-alpha-dihydrotestosterone]
cross-reaction with Immuchem testosterone antiserum (testosterone antiserum): 7.8%
6-week Body Wt. ([1]; 0.3-cm implant): 515 ± 10 g
12-week Body Wt. ([1]; 0.3-cm implant): 1191 ± 26 g
Adipose Abdominal ([1]; 0.3-cm implant): 10 ± 2 g
Final 12-week Shank-toe Length ([1]; 0.3-cm implant): 16.4 ± 0.10 cm
Right Breast Muscle ([1]; 0.3-cm implant): 57 ± 2 g
12-week Body Wt. Change [1, 4]: 6.9%
Adipose Abdominal Change [1, 4]: 58.3%
Final 12-week Shank-toe Length Change [1, 4]: 3.5%
Right Breast Muscle Change [1, 4]: 10.9%
6-week Body Wt. ([1]; 1.0-cm implant): 485 ± 12 g
12-week Body Wt. ([1]; 1.0-cm implant): 1140 ± 39 g
Adipose Abdominal ([1]; 1.0-cm implant): 6 ± 1 g
Final 12-week Shank-toe Length ([1]; 1.0-cm implant): 16.1 ± 0.24 cm
Right Breast Muscle ([1]; 1.0-cm implant): 51 ± 3 g
12-week Body Wt. Change [1, 6]: 10.9%
Adipose Abdominal Change [1, 6]: 75.0%
Final 12-week Shank-toe Length Change [1, 6]: 5.3%
Right Breast Muscle Change [1, 6]: 15.6%
6-week Body Wt. ([1]; 3.0-cm implant): 415 ± 15 g
12-week Body Wt. ([1]; 3.0-cm implant): 872 ± 53 g
Adipose Abdominal ([1]; 3.0-cm implant): 0.5 ± 0.2 g
Final 12-week Shank-toe Length ([1]; 3.0-cm implant): 13.7 ± 0.34 cm
Right Breast Muscle ([1]; 3.0-cm implant): 36 ± 3 g
6-week Body Wt. Change [1, 5]: 19.1%
12-week Body Wt. Change [1, 5]: 31%
Adipose Abdominal Change [1, 5]: 97.9%
Final 12-week Shank-toe Length Change [1, 5]: 19.4%
Right Breast Muscle Change [1, 5]: 43.8%
Abdominal Adipose ([2]; 1.0-cm implant): 2.05 ± 0.12 g
Final Shank-toe Length ([2]; 1.0-cm implant): 11.4 ± 0.07 cm
Right Breast Muscle ([2]; 1.0-cm implant): 16.3 ± 0.67 g
Abdominal Adipose Change ([2]; 1.0-cm implant): 33%
Final 6-week Body Wt. Change ([2]; 1.0-cm implant): 8.6%
Final Shank-toe Length Change ([2]; 1.0-cm implant): 4.2%
Right Breast Muscle Change ([2]; 1.0-cm implant): 17.7%
Final 6-week Body Wt. ([2]; 1.0-cm implant): 422 ± 10 g
